Columns and labels:
[1] = species on record: Canis familiaris; test: Tested for the pharmacokinetic data, time required to reach Cmax (Tmax) in dog; format: ADME, organism-based, Canis lupus familiaris; conditions: in vivo
[2] = Tested for the half life period in dog; format: ADME, organism-based, Canis lupus familiaris; conditions: in vivo
[3] = Tested for the pharmacokinetic data, area under the curve of concentration versus time in dog; format: ADME, organism-based, Canis lupus familiaris; conditions: in vivo
[4] = Tested for the pharmacokinetic data, maximum concentration (Cmax) in dog; format: ADME, organism-based, Canis lupus familiaris; conditions: in vivo
[5] = biological target: T1, Human immunodeficiency virus type 1 protease (Human immunodeficiency virus 1, UniProt Q72874); test: In vitro inhibitory activity against wild type HIV-1 protease
[6] = biological target: T1, Human immunodeficiency virus type 1 protease; test: In vitro inhibitory activity against mutant HIV-1 (A-44)protease
[7] = tested on: Human immunodeficiency virus 1; test: Inhibition of the spread of viral infection in MT-4 human T-lymphoid cells infected by IIIb isolate; format: functional; conditions: read-out: CIC95
[8] = Human immunodeficiency virus 1, T-lymphoid

In the case of `CC(C)(C)NC(=O)[C@@H]1CN(Cc2cccnc2)CCN1C[C@@H](O)C[C@@H](Cc1ccc(F)cc1)C(=O)NC1c2cccc(Cl)c2C[C@H]1O` (single isomer, unassigned), the T max [1] is reported as 40 min, the half-life [2] is reported as 50.5 min and the AUC [3] is reported as 0.181 µM·h. The Cmax [4] was 180 nM.

Work on `CC(C)(C)NC(=O)[C@@H]1CN(Cc2cc3cc(F)ccc3o2)CCN1C[C@@H](O)C[C@@H](Cc1ccccc1)C(=O)N[C@@H]1c2ccccc2C[C@H]1O` yielded an IC50 [5] of 0.94 nM, an IC50 [6] of 46 nM and an IC95 [7, 8] of 200 nM.

Molecule `CC(C)(C)NC(=O)[C@@H]1CN(Cc2cccnc2)CCN1C[C@@H](O)C[C@@H](Cc1cccnc1)C(=O)N[C@@H]1c2ccccc2C[C@H]1O` has a T max [1] of 40 min, a half-life [2] of 43.4 min and an AUC [3] of 0.291 µM·h. It also gave a Cmax [4] of 313 nM.

With `CC(C)(C)NC(=O)[C@@H]1CN(Cc2cccc(C(C)(C)NC(=O)OC(C)(C)C)c2)CCN1C[C@@H](O)C[C@@H](Cc1ccccc1)C(=O)N[C@@H]1c2ccccc2C[C@H]1O` the IC50 [5] was 28 nM, the IC50 [6] was 392 nM and the IC95 [7, 8] was > 400 nM.

For `Cn1cc(CN2CCN(C[C@@H](O)C[C@@H](Cc3ccccc3)C(=O)N[C@@H]3c4ccccc4C[C@H]3O)[C@H](C(=O)NC(C)(C)C)C2)c2ccccc21`, the IC50 [5] was 6.7 nM, the IC50 [6] was 332 nM and the IC95 [7, 8] was > 400 nM.

`CC(C)(C)NC(=O)[C@@H]1CN(Cc2cccnc2)CCN1C[C@@H](O)C[C@@H](Cc1cccnc1)C(=O)NC1c2cccc(Cl)c2C[C@H]1O` (single isomer, unassigned) gave a T max [1] of 40 min, a half-life [2] of 23.9 min and an AUC [3] of 0.227 µM·h. The Cmax [4] was 220 nM.

In the case of `CC(C)(C)NC(=O)[C@@H]1CN(Cc2cccnc2)CCN1C[C@@H](O)C[C@@H](Cc1ccccc1)C(=O)NC1c2cccc(F)c2C[C@H]1O` (single isomer, unassigned), the T max [1] is reported as 40 min, the half-life [2] is reported as 44.5 min and the AUC [3] is reported as 0.258 µM·h. It also gave a Cmax [4] of 250 nM.

In the case of `CC(C)(C)NC(=O)[C@@H]1CN(Cc2cccnc2)CCN1C[C@@H](O)C[C@@H](Cc1ccccc1)C(=O)NC1c2cccc(Cl)c2C[C@H]1O` (single isomer, unassigned), the T max [1] is reported as 40 min, the half-life [2] is reported as 45.8 min and the AUC [3] is reported as 0.256 µM·h. It also gave a Cmax [4] of 250 nM.

For `CC(C)(C)NC(=O)[C@@H]1CN(Cc2noc3ccccc23)CCN1C[C@@H](O)C[C@@H](Cc1ccccc1)C(=O)NC1c2ccccc2C[C@H]1O` (stereo partly drawn), the IC50 [5] was 1.17 nM, the IC50 [6] was 71.5 nM and the IC95 [7, 8] was 400 nM.

In the case of `CC(C)(C)NC(=O)[C@@H]1CN(CCCC(F)(F)F)CCN1C[C@@H](O)C[C@@H](Cc1ccccc1)C(=O)N[C@@H]1c2ccccc2C[C@H]1O`, the IC50 [5] is reported as 15.3 nM, the IC50 [6] is reported as 568 nM and the IC95 [7, 8] is reported as > 400 nM.

Work on `CC(C)(C)NC(=O)[C@@H]1CN(Cc2ncc(-c3ccccc3)s2)CCN1C[C@@H](O)C[C@@H](Cc1ccccc1)C(=O)N[C@@H]1c2ccccc2C[C@H]1O` yielded an IC50 [5] of 0.26 nM, an IC50 [6] of 2 nM and an IC95 [7, 8] of 50 nM.

With `Cn1nc(C(F)(F)F)cc1-c1ccc(CN2CCN(C[C@@H](O)C[C@@H](Cc3ccccc3)C(=O)N[C@@H]3c4ccccc4C[C@H]3O)[C@H](C(=O)NC(C)(C)C)C2)s1` the IC50 [5] was 0.13 nM, the IC50 [6] was 0.6 nM and the IC95 [7, 8] was 25 nM.

In the case of `CC(C)(C)NC(=O)[C@@H]1CN(Cc2cccnc2)CCN1C[C@@H](O)C[C@@H](CC1CCCCC1)C(=O)NC1c2cccc(F)c2C[C@H]1O` (single isomer, unassigned), the T max [1] is reported as 40 min, the half-life [2] is reported as 48.2 min and the AUC [3] is reported as 0.236 µM·h. The Cmax [4] was 148 nM.

In the case of `CC(C)(C)NC(=O)[C@@H]1CN(Cc2cccnc2)CCN1C[C@@H](O)C[C@@H](Cc1ccc(F)cc1)C(=O)NC1c2ccccc2C[C@H]1O` (single isomer, unassigned), the T max [1] is reported as 40 min, the half-life [2] is reported as 44.6 min and the AUC [3] is reported as 0.258 µM·h. The Cmax [4] was 264 nM.

Work on `CC(C)(C)NC(=O)[C@@H]1CN(Cc2cccnc2)CCN1C[C@@H](O)C[C@@H](CC1CC1)C(=O)NC1c2cccc(F)c2C[C@H]1O` (single isomer, unassigned) yielded a T max [1] of 40 min, a half-life [2] of 20.2 min and an AUC [3] of 0.525 µM·h. The Cmax [4] was 610 nM.

Molecule `CC(C)(C)NC(=O)[C@@H]1CN(Cc2nc3ccccc3s2)CCN1C[C@@H](O)C[C@@H](Cc1ccccc1)C(=O)N[C@@H]1c2ccccc2C[C@H]1O` has an IC50 [5] of 1.2 nM, an IC50 [6] of 71.7 nM and an IC95 [7, 8] of 400 nM.

For `CC(C)(C)NC(=O)[C@@H]1CN(Cc2nc3ccccc3o2)CCN1C[C@@H](O)C[C@@H](Cc1ccccc1)C(=O)N[C@@H]1c2ccccc2C[C@H]1O`, the IC50 [5] was 1.2 nM, the IC50 [6] was 66 nM and the IC95 [7, 8] was 400 nM.

For `CC(C)(C)NC(=O)[C@@H]1CN(CC2(c3ccccc3)CC2)CCN1C[C@@H](O)C[C@@H](Cc1ccccc1)C(=O)N[C@@H]1c2ccccc2C[C@H]1O`, the IC50 [5] was 7.7 nM, the IC50 [6] was 257 nM and the IC95 [7, 8] was > 400 nM.

Molecule `CN(C)c1ccc2ccc(S(=O)(=O)N3CCN(C[C@@H](O)C[C@@H](Cc4ccccc4)C(=O)N[C@@H]4c5ccccc5C[C@H]4O)[C@H](C(=O)NC(C)(C)C)C3)cc2n1` has an IC50 [5] of 0.22 nM, an IC50 [6] of 2.2 nM and an IC95 [7, 8] of 50 nM.

`CC(C)(C)NC(=O)[C@@H]1CN(Cc2cccnc2)CCN1C[C@@H](O)C[C@@H](CC1CCCCC1)C(=O)NC1c2ccccc2C[C@H]1O` (single isomer, unassigned) showed a T max [1] of 40 min, a half-life [2] of 54.4 min and an AUC [3] of 0.26 µM·h. For the same molecule, the Cmax [4] was 232 nM.

In the case of `C[C@@H]1CC[C@@H](O)C1NC(=O)[C@H](Cc1cccnc1)C[C@H](O)CN1CCN(Cc2cccnc2)C[C@H]1C(=O)NC(C)(C)C` (single isomer, unassigned), the T max [1] is reported as 40 min, the half-life [2] is reported as 23.4 min and the AUC [3] is reported as 0.464 µM·h. For the same molecule, the Cmax [4] was 524 nM.

Molecule `CC(C)(C)NC(=O)[C@@H]1CN(Cc2cccnc2)CCN1C[C@@H](O)C[C@@H](Cc1cccnc1)C(=O)NC1c2cccc(F)c2C[C@H]1O` (single isomer, unassigned) has a T max [1] of 40 min, a half-life [2] of 28.7 min and an AUC [3] of 0.245 µM·h. For the same molecule, the Cmax [4] was 268 nM.

With `C[C@@H]1CC[C@@H](O)[C@@H]1NC(=O)[C@H](Cc1ccc(F)cc1)C[C@H](O)CN1CCN(Cc2cccnc2)C[C@H]1C(=O)NC(C)(C)C` the T max [1] was 40 min, the half-life [2] was 39.2 min and the AUC [3] was 0.371 µM·h. It also gave a Cmax [4] of 378 nM.

`C[C@@H]1CC[C@@H](O)C1NC(=O)[C@H](Cc1ccccc1)C[C@H](O)CN1CCN(Cc2cccnc2)C[C@H]1C(=O)NC(C)(C)C` (single isomer, unassigned) showed a T max [1] of 40 min, a half-life [2] of 31.5 min and an AUC [3] of 0.512 µM·h. The Cmax [4] was 554 nM.

Molecule `CC(C)(C)NC(=O)[C@@H]1CN(Cc2cccnc2)CCN1C[C@@H](O)C[C@@H](CC1CC1)C(=O)NC1c2cccc(Cl)c2C[C@H]1O` (single isomer, unassigned) has a T max [1] of 40 min, a half-life [2] of 23 min and an AUC [3] of 0.566 µM·h. It also gave a Cmax [4] of 626 nM.

`CC(C)(C)NC(=O)[C@@H]1CN(Cc2cccnc2)CCN1C[C@@H](O)C[C@@H](CC1CC1)C(=O)NC1c2ccccc2C[C@H]1O` (single isomer, unassigned) gave a T max [1] of 40 min, a half-life [2] of 21.2 min and an AUC [3] of 0.566 µM·h. For the same molecule, the Cmax [4] was 651 nM.

In the case of `CC(C)(C)NC(=O)[C@@H]1CN(Cc2cccnc2)CCN1C[C@@H](O)C[C@@H](Cc1ccccc1)C(=O)NC1c2ccccc2C[C@H]1O.O` (single isomer, unassigned) [INDINAVIR], the T max [1] is reported as 40 min, the half-life [2] is reported as 27.1 min and the AUC [3] is reported as 0.307 µM·h. The IC95 [7, 8] was 50 nM, the IC95 [7] was 50.5 nM and the Cmax [4] was 358 nM.

`CC(C)(C)NC(=O)[C@@H]1CN(Cc2cccnc2)CCN1C[C@@H](O)C[C@@H](Cc1ccc(F)cc1)C(=O)N[C@@H]1c2cccc(F)c2C[C@H]1O` showed a T max [1] of 40 min, a half-life [2] of 48.2 min and an AUC [3] of 0.197 µM·h. The Cmax [4] was 195 nM.

Source: ChEMBL document CHEMBL1135057, “A combinatorial library of indinavir analogues and its in vitro and in vivo studies” (Bioorg Med Chem Lett, 2002)
